Test results from patent US20080206253A1, “Method For Preventing or Treating Pain in a Mammal” (priority 2005, published 2008).
Entries after “also recorded” stand apart in the source; their conditions may differ. Marks after values point to notes of the source that are not given here.

What was measured:
[1] = test system: rats, IT SP (spinal NK-1 receptors); experiment: IT substance P-evoked thermal hyperalgesia (paw withdrawal latency, Hargreaves device); type: in vivo, rat; conditions: for IT SP-induced thermal hyperalgesia (paw withdrawal latency): IT p38α AS 30 μg or p38β AS 20 μg daily for five days, IT SP 30 nmol, compared with MS group; for Base line thermal thresholds: before IT SP, after five days of IT treatment
Protocol: Yaksh et al., Nature 286: 155-157, 1980; Yaksh, Trends Pharmacol Sci 20: 329-337, 1999. […] Malmberg and Yaksh, Science 257: 1276-1279, 1992; Svensson et al., J Neurochem 86: 1534-1544, 2003. […] To investigate the contribution of p38α and p38β to SP-evoked hyperalgesia and p38 phosphorylation, spinal delivery of p38α and p38β AS and MS was carried out. Thermal withdrawal latencies was assessed after IT injection of SP and lumbar spinal cords collected immediately to compare the degree of spinal p38 phosphorylation at the hypothesized time of peak phosphorylation. IT injection of SP into the MS group produced an expected reduction of thermal withdrawal latency in comparison with IT saline injection into to vehicle treated animals (FIG. 7C). […] In contrast, IT SP-induced thermal hyperalgesia was attenuated in rats which had received p38β AS (FIG. 7E). […] Stripping and reprobing the western blot membranes confirmed that p38α protein expression was knocked down in p38α AS treated group (FIG. 7D) as well as p38β in the p38β AS group (FIG. 7F).
Nociceptive models. To directly induce spinal sensitization, rats received intrathecal injections of sP (30 nmol) which activates spinal NK-1 receptors and produces thermal hyperalgesia. Hua et al., Neuroscience 89: 525-534, 1999a; Piercey et al., Science 214: 1361-1363, 1981; Yashpal and Henry, Can J Physiol Pharmacol 61: 303-307, 1983. Thermally evoked paw withdrawal responses were assessed using a Hargreaves type testing device. Dirig et al., J Neurosci Methods 76: 183-191, 1997. Briefly, rats were placed on a glass surface maintained at 30° C. The thermal nociceptive stimulus originates from a projection bulb below the glass surface, and the stimulus is delivered separately to one hind paw at a time. The animals were allowed to acclimatize on the glass surface and basal paw withdrawal latencies (PWL) were then assessed for left and right paws at time (T)=−40, =30 and −20 min and expressed as the mean of the six measurements. At T=−10 min the animals received intrathecal vehicle or drug and at T=0, sP was injected. Withdrawal latencies were then assessed at T=15, 30, 45 and 60 min. Paw withdrawal latency for each group was expressed as the mean at each time point.

p38β = experiment: Western blot of spinal p38β protein expression after IT antisense; type: in vivo, rat; conditions: for p38β protein expression, % Expression Compared to Missense: spinal cord at day six, MS=100%, mean ±SEM n=6; for spinal p38β protein expression compared to missense (MS)-treated animals (in words): five days of IT bolus injections, p38β AS 10-20 μg (10 and 20 μg: P<0.05), p38α AS 10-30 μg
Source text: It has previously been shown that inhibition of spinal p38 MAP kinase prevents both inflammation-evoked hyperalgesia and nerve injury-induced allodynia. Ji et al., Neuron 36: 57-68, 2002; Schafers et al., J Neurosci 23: 2517-2521, 2003; Svensson et al., Neuroreport 14: 1153-1157, 2003a.; Svensson et al., J Neurochem 86: 1534-1544, 2003b. It still remains to be determined whether only one or both of the p38 isoforms, that are present in the spinal cord, are involved in modulation of spinal nociceptive processing. Since there is no specific p38 isoform inhibitors available, rats were treated intrathecally with isoform specific antisense oligonucleotides (AS) in order to knock down p38α and p38β respectively. […] There were no differences between the AS-, MS- or vehicle-treated groups in terms of weight gain or motor function. The specificity of the effects of these two antisense oligonucleotides was also examined. Western blot membranes were stripped and re-incubated the with the other p38 isoform antibody. […] In Table 1, antisense was given IT once daily for 5 days and protein expression assayed in spinal chord at day six compared to protein level detected in missense treated animals (MS=100%). Each group represents mean ±SEM, n=6 per group. (*) represents P<0.05 as compared to the missense group.
Antisense oligonucleotides. Three oligonucleotides (a kind gift from ISIS Pharmaceuticals Inc.) with lengths of 20 nucleotides were employed in the study: ISIS 101757 (p38α AS) […], beginning at position 1081 in the rat p38α mRNA; ISIS 107211 (p38βAS) […], beginning at position 439 in the rat p38β mRNA; and ISIS141923 (an universe MS control) […]. These oligonucleotides were synthesized as 2′-methoxyethyl (MOE) phosphorothioate chimeric oligonucleotides in which the first and last five bases contained MOE modifications with a uniform phosphorothioate backbone. Butler et al., Diabetes 51: 1028-1034, 2002. The oligonucleotides were dissolved in artificial cerebrospinal fluid (ACSF) immediately prior to intrathecal administration. The ACSF contained (mM) 151.1 Na+, 2.6 K+, 0.9 Mg2+, 1.3 Ca 2+, 122.7 Cl−, 21.0 HCO3, 2.5 HPO4 and was bubbled with 95% O2/5% CO2 before use to adjust the final pH to 7.2. AS and MS (10-30 μg) was administrated in 10 μl ACSF followed by 10 μl saline daily for five days and behavioral experiments and spinal tissue collection performed on day six.
Western blot. Prior to sacrifice, rats were deeply anesthetized and after decapitation the spinal cords were ejected from the vertebral column by a saline-filled syringe. The lumbar part of the spinal cord was immediately homogenized in extraction buffer (50 mM Tris buffer, pH 8.0, containing 0.5% Triton X-100, 150 mM NaCl, 1 mM EDTA, phosphatase and protease inhibitors) by sonication. The tissue extracts were subjected to denaturing NuPAGE 4-12% Bis-Tris gel electrophoresis and then transferred to nitrocellulose membranes (Micronic Separation Inc. Westborough, Mass.). After blocking nonspecific binding sites with 5% low-fat milk in PBS containing 0.1% Tween 20 (PBS-T) for 1 hour in room temperature, the membranes were incubated with antibodies overnight at 4° C. After washing, the antibody-protein complexes were probed with appropriate secondary antibodies labeled with horseradish peroxidase for 1 hr at room temperature and detected with chemiluminescent reagents (SuperSignal, Pierce, Rockford, Ill.). […]

| Substance | IT SP-induced thermal hyperalgesia (paw withdrawal latency) [1] | Base line thermal thresholds [1] | p38β protein expression, % Expression Compared to Missense (p38β; IT antisense 30 μg once daily for 5 days) | spinal p38β protein expression compared to missense (MS)-treated animals (in words) (p38β) | p38β protein expression, % Expression Compared to Missense (p38β; IT antisense 10 μg once daily for 5 days) | p38β protein expression, % Expression Compared to Missense (p38β; IT antisense 20 μg once daily for 5 days) |
| --- | --- | --- | --- | --- | --- | --- |
| p38α AS: 20-nucleotide 2′-MOE phosphorothioate chimeric antisense AGGTGCTCAGGACTCCATTT, beginning at position 1081 in the rat p38α mRNA (all phosphorothioate, sugars by position and methylation of C not given here; 2'-MOE chimeric (gapmer) antisense) | not affected | 11.49 ± 0.3 s | 111 ± 15% | neither p38α AS nor p38β AS produced a reduction of the protein expression of the other isoform | – | – |
| p38β AS: 20-nucleotide 2′-MOE phosphorothioate chimeric antisense GTATGTCCTCCTCGCGTGGA, beginning at position 439 in the rat p38β mRNA (all phosphorothioate, sugars by position and methylation of C not given here; 2'-MOE chimeric (gapmer) antisense) | attenuated; also recorded: blocked IT SP-evoked thermal hyperalgesia | 10.8 ± 0.5 s | – | significant down-regulation; also recorded: knocked down | 45 ± 9* % | 39 ± 12* % |
